The values that follow come from ChEMBL document CHEMBL3046305, “Insecticidal and repellent action of allyl esters against Acyrthosiphon pisum (Hemiptera: Aphididae) and Tribolium castaneum (Coleoptera: Tenebrionidae)” (2013).

The subject of test [1] is Acyrthosiphon pisum. Briefly: Insecticidal activity against Acyrthosiphon pisum (pea aphid) treated artificial diet with compound for 3 days assessed as mortality. The format is functional. As to conditions: for LC50: Acyrthosiphon pisum, 72 h.
Test [2] concerns Acyrthosiphon pisum. Briefly: Repellent effect in Acyrthosiphon pisum (pea aphid) at 0.1 ug/cm'2. The format is functional, organism-based.
The test system of test [3] is Acyrthosiphon pisum. Briefly: Insecticidal activity against Acyrthosiphon pisum (pea aphid) treated artificial diet with compound assessed as mortality at 0.1 mg/ml after 1 day. Type of test: functional, organism-based.
The subject of test [4] is Acyrthosiphon pisum. Briefly: Insecticidal activity against Acyrthosiphon pisum (pea aphid) assessed as mortality treated topically at 30 ug/insect measured after 24 hr. Type of test: functional.
In test [5] the test system is Tribolium castaneum. Briefly: Insecticidal activity against Tribolium castaneum (red flour beetle) assessed as mortality treated topically measured per insect after 24 hr. Type of test: functional.
Test [6] has as its system Acyrthosiphon pisum. Briefly: Insecticidal activity against Acyrthosiphon pisum (pea aphid) treated artificial diet with compound assessed as mortality at 0.7 mg/ml after 1 day. The format is functional. As to conditions: 24 h.
For test [7], the system named is Tribolium castaneum. Briefly: Insecticidal activity against Tribolium castaneum (red flour beetle) assessed as mortality at 0.25 mg/insect. Type of test: functional.
For test [8], the system named is Acyrthosiphon pisum. Briefly: Insecticidal activity against Acyrthosiphon pisum (pea aphid) treated artificial diet with compound assessed as mortality at 0.7 mg/ml after 3 days. Conditions: 72 h. The format is functional.
In test [9] the test system is Tribolium castaneum. Briefly: Insecticidal activity against Tribolium castaneum (red flour beetle) Herbst assessed as mortality treated topically at 0.24 mg/insect measured per insect after 24 hr. The format is functional.
Test [10] concerns Tribolium castaneum. Briefly: Repellent effect in Tribolium castaneum (red flour beetle) at 10 ug/cm'2 measured after 24 hr. The format is functional.
The test system of test [11] is Tribolium castaneum. Briefly: Repellent effect in Tribolium castaneum (red flour beetle) at 10 ug/cm'2 measured after 4 hr. The format is functional.
In test [12] the test system is Acyrthosiphon pisum. Briefly: Repellent effect in Acyrthosiphon pisum (pea aphid) at 10 ug/cm'2. Type of test: functional.
Test [13] relates to Tribolium castaneum. Briefly: Repellent effect in Tribolium castaneum (red flour beetle) at 0.1 ug/cm'2 measured after 8 hr. Type of test: functional, organism-based.

In brackets after ≈: the same amount, converted by molar mass. Activity calls are given as the source filed them. The calls are words filed in the database; no cut-off is given here. A value given as a limit tells only on which side of the number the result lay.

Regarding `C=CCOC(=O)CCCCCC` [ALLYL HEPTANOATE], the LC90 is 1160 µg/mL (≈ 6810 µM) in the test on Acyrthosiphon pisum [1] and 0.32 mg in the test on Tribolium castaneum [5]. Further, the result in the test on Acyrthosiphon pisum [2] was inactive. The mortality result in the test on Acyrthosiphon pisum [3] and with Acyrthosiphon pisum [4] was “inactive” throughout. The mortality (in general, the percentage killed) at 700 µg/mL was 53% with Acyrthosiphon pisum [6] and 72% with Acyrthosiphon pisum [8]. For the same molecule, the LT50 with Tribolium castaneum [7] was under 2 h. The mortality with Tribolium castaneum [9] was determined as 45%.

For `C=CCOC(=O)CCCCCCC` [ALLYL OCTANOATE], the outcome in the test with Acyrthosiphon pisum [2] was inactive. Further, in the test on Acyrthosiphon pisum [3], the mortality entry was “inactive”. Besides, in the test with Acyrthosiphon pisum [4], the mortality entry was “inactive”. For the same molecule, in the test on Tribolium castaneum [5], the LC50 is given as 0.1 mg and the LC90 is recorded as 0.16 mg. Besides, the mortality with Tribolium castaneum [9] came to 45%.

As for `CCN(CC)C(=O)c1cccc(C)c1` [DIETHYLTOLUAMIDE], the Repellency in the test on Tribolium castaneum [10] was determined as 84%; in the test with Tribolium castaneum [11], 60%; in the test with Acyrthosiphon pisum [12], 50%.

With `C=CCOC(=O)CCCCC` [ALLYL HEXANOATE], the result with Acyrthosiphon pisum [2] and in the test with Tribolium castaneum [11] was inactive. In addition, the mortality result in the test with Acyrthosiphon pisum [3] and with Acyrthosiphon pisum [4] was “inactive” throughout. Moreover, the LC90 in the test with Tribolium castaneum [5] is 0.3 mg. Besides, the mortality with Tribolium castaneum [9] is listed as 45%.

For `C=CCOC(=O)/C=C/c1ccccc1` [ALLYL CINNAMATE], the LC90 amounted to 180 µg/mL (≈ 956 µM) in the test with Acyrthosiphon pisum [1] and 0.28 mg in the test with Tribolium castaneum [5]. In addition, the figures for the LC50 in the test on Acyrthosiphon pisum [1] and with Tribolium castaneum [5] were 30 µg/mL (≈ 159 µM) and 0.2 mg, respectively. For the same molecule, in the test with Acyrthosiphon pisum [3], the mortality entry was “inactive”. In addition, the outcome with Tribolium castaneum [13] was Active. For the same molecule, the Repellency with Tribolium castaneum [11] turned out to be 80%; in the test with Acyrthosiphon pisum [12], 34%. The mortality in the test on Acyrthosiphon pisum [4] is on record as 75%; with Tribolium castaneum [9] it was 45%. The mortality at 700 µg/mL in the test on Acyrthosiphon pisum [6] was found to be 86%; in the test on Acyrthosiphon pisum [8], 100%. For the same molecule, the LT50 in the test on Tribolium castaneum [7] is under 2 h.

For the molecule `C=CCOC(=O)c1ccco1` [ALLYL 2-FUROATE], the LC90 amounted to 2900 µg/mL (≈ 19100 µM) in the test on Acyrthosiphon pisum [1] and 0.46 mg with Tribolium castaneum [5]. Also, the LC50 in the test with Acyrthosiphon pisum [1] was 210 µg/mL (≈ 1380 µM); with Tribolium castaneum [5], 0.2 mg. For the same molecule, the outcome with Acyrthosiphon pisum [2] was inactive. Besides, the mortality entry with Acyrthosiphon pisum [3] and in the test on Acyrthosiphon pisum [4] was “inactive” in each case. Moreover, the mortality at 700 µg/mL in the test with Acyrthosiphon pisum [6] turned out to be 52%; in the test with Acyrthosiphon pisum [8], 68%. In the test with Tribolium castaneum [9], the mortality came out at 45%.
